Patent US8603227B2, “Composition for prevention of influenza viral infection comprising tannic acid, air filter comprising the same and air cleaning device comprising the filter” (Woongjin Coway Co., Ltd., priority 2009, dated 2013)

Assays:
Assay type in all cases: cell-based, influenza A virus subtype H1N1
[1] = test system: influenza A/WSN/33 (H1N1); assay: Plaque assay of tannic acid against influenza A/WSN/33 (H1N1) on MDCK cells
Method: (§1) Tannic acid was assayed for inhibitory activity against influenza virus as follows.
(§2) As influenza virus strains to be tested, influenza A subtype H1N1 viruses A/PR/8 (H1N1) and A/WSN (H1N1) as well as the WHO standard strain influenza A (H1N1) (A/California/O4/09), which was responsible for the declaration of the 2009 pandemic, were used.
(§3) Tannic acid was used as a sample in the following procedure.
(§4) The MDCK (Mardine Darbine Canine Kidney) cell line was inoculated at a density of 1.5×10^6 cells/mL into 6-well plates which were then incubated at 37° C. for 24 his in a 5% CO2 atmosphere. Separately, tannic acid was diluted to 100 mg/ml (1×) in an injection solution. The dilution was subjected to serial 10-fold dilutions. The specimens thus obtained were added in an amount of 90 μL per well to 96-well plates. 10 uL of an influenza virus sample was added to each well, incubated for 10 min, and 10-fold diluted with PBS. The MDCK cell line which had grown to confluence on the plates was infected with 1 mL of the dilution and incubated for 1 hr. For an “infection+non-administration” control, the MDCK cell line was infected with influenza virus which had not been treated with tannic acid.
(§5) Thereafter, the medium was removed, and a mixture of 1:1 2× agarose:2×MEM containing 10 μg/ml trypsin was added in an amount of 2 mL per well. […]

[2] = test system: new influenza A (H1N1) (A/California/O4/09); assay: Plaque assay of tannic acid against new influenza A (H1N1) A/California/O4/09 on MDCK cells
Method: as §1, §2, §3, §4, §5

influenza A/PR/8 (H1N1) = assay: Plaque assay of tannic acid against influenza A/PR/8 (H1N1) on MDCK cells
Method: as §1, §2, §3, §4, §5

[3] = (1-treated/control)x100, MDCK plaque count
[4] = virus incubated 10 min with tannic acid, MDCK plaque count

O=C(OC[C@H]1O[C@@H](OC(=O)c2cc(O)c(O)c(OC(=O)c3cc(O)c(O)c(O)c3)c2)[C@H](OC(=O)c2cc(O)c(O)c(OC(=O)c3cc(O)c(O)c(O)c3)c2)[C@@H](OC(=O)c2cc(O)c(O)c(OC(=O)c3cc(O)c(O)c(O)c3)c2)[C@@H]1OC(=O)c1cc(O)c(O)c(OC(=O)c2cc(O)c(O)c(O)c2)c1)c1cc(O)c(O)c(OC(=O)c2cc(O)c(O)c(O)c2)c1 [Tannic Acid, Tannic acid]
Inhibitory Activity [1, 3]: 99.99% | Virus Titer [1, 4]: Not-detected | Inhibitory Activity [2, 3]: 99.99% | Virus Titer [2, 4]: Not-detected | Inhibitory Activity (influenza A/PR/8 (H1N1); [3]): 99.99% | Virus Titer (influenza A/PR/8 (H1N1); [4]): Not-detected
